Laboratory results: paper PMC2659691 (Journal of Medicinal Chemistry, 2009)

Columns and labels:
[1] = molecular target: T. brucei TryR (Trypanosoma brucei brucei, UniProt P39051); assay: TryR inhibition, high-throughput microplate assay; assay type: biochemical
[2] = molecular target: T. cruzi TryR (Trypanosoma cruzi, UniProt P28593); assay: TryR inhibition, high-throughput microplate assay; assay type: biochemical
T. cruzi TryR, sequence (P28593 whole entry): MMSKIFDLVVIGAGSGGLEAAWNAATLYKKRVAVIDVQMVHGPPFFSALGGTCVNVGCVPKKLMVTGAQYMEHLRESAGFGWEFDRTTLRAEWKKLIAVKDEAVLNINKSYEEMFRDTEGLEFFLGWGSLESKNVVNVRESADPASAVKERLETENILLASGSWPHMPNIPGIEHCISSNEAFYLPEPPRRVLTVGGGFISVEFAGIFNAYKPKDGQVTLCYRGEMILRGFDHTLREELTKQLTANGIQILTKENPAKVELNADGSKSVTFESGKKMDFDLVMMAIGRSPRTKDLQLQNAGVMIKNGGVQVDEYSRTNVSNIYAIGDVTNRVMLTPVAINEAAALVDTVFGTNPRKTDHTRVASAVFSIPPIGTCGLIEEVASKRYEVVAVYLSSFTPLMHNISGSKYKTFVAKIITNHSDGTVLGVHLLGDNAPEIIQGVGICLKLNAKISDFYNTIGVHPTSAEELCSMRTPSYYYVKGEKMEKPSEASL

T. brucei TryR, sequence (P39051 whole entry): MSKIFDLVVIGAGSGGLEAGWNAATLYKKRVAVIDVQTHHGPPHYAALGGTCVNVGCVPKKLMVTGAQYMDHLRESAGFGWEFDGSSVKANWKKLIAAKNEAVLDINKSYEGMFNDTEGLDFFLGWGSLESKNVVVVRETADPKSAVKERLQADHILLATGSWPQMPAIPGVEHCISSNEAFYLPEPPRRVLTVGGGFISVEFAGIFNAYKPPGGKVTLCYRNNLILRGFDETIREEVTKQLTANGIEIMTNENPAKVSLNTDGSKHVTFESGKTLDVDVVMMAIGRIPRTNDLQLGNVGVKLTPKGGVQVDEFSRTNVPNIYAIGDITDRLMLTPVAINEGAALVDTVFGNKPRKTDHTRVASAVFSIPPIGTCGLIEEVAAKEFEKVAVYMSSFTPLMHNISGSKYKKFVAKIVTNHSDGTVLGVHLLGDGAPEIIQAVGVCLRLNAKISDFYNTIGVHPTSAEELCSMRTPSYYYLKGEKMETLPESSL

Row | SMILES | inhibitory activity against TryR (in words) [1] | inhibitory activity against TryR (in words) [2]
1 | O=C(CN1C(=O)C2CC=CCC2C1=O)Nc1ccccc1Sc1ccc(Cl)cc1 (stereo not shown) [Compound 12] | neither 12 nor 16 displayed significant inhibitory activity | neither 12 nor 16 displayed significant inhibitory activity
2 | O=C(CN1C(=O)NC2(CCCCCC2)C1=O)Nc1ccccc1Sc1ccccc1 [Compound 16] | neither 12 nor 16 displayed significant inhibitory activity | neither 12 nor 16 displayed significant inhibitory activity
